# Data taken from publication PMC7859335, “Discovery of Diaryl Ether Substituted Tetrahydrophthalazinones as TbrPDEB1 Inhibitors Following Structure-Based Virtual Screening” (Frontiers in Chemistry, 2021).
# Target: T1, TbrPDEB1 (Trypanosoma brucei, UniProt Q8WQX9)
# T1 construct: The TbrPDEB1 catalytic domain phosphodiesterase activity assays were conducted based on a method reported by Sijm et al
# T1 sequence (Q8WQX9 565-918 limits assumed): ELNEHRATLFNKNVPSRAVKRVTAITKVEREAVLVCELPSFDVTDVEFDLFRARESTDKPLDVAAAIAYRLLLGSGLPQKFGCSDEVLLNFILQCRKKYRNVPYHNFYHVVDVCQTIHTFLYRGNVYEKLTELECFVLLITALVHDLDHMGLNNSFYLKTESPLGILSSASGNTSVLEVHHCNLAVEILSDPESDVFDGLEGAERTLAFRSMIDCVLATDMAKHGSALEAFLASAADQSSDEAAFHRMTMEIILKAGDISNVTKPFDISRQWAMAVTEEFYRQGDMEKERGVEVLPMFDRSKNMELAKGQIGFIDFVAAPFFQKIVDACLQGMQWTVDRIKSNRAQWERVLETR
# Experiment: TbrPDEB1 catalytic domain phosphodiesterase activity assay (PDELight HTS cAMP kit)
# Type: biochemical
# Conditions: single point assay at 10 μM inhibitor
# Procedure: The TbrPDEB1 catalytic domain phosphodiesterase activity assays were conducted based on a method reported by Sijm et al. ([2019]) with minor adaptations (Sijm et al., [2019]). The PDELight™ HTS cAMP phosphodiesterase Kit (Lonza, Walkersville, USA) was performed at 25°C in non-binding, low volume 384-well plates (Corning, Kennebunk, ME, USA). […] Single concentration measurements were made at 10 μM inhibitor concentration (triplo measurements/assay, n = 2). Dose-response curves were made in the range 100 μM−10 pM (triplo measurements/assay, n = 3). Compounds were diluted in DMSO (final in-test concentration 1%). Inhibitor dilutions (2.5 μL) were transferred to the 384-well plates, 2.5 μL of PDE in stimulation buffer was added and mixed, 5 μL of cAMP (at 2 × Km up to 20 μM) added and the assay mixture was incubated for 20 min at 300 rpm. […] Then, 5 μL of Lonza Detection reagent (diluted to 80% with reaction buffer) was added and the reaction incubated for 10 min at 300 rpm. Luminescence was read with a Victor3 luminometer using a 0.1 s/well program.
# The Ki values of the inhibitors analyzed are represented as the mean of at least three independent experiments with the associated standard error of the mean (S.E.M.).
row,Compound,TbrPDEB1 (% inh.)
1,"COc1ccc(C2=NN(C(C)C)C(=O)[C@H]3CC=CC[C@@H]23)cc1Oc1nccc2sccc12 (relative stereo) [2j, cis-2-Isopropyl-4-(4-methoxy-3-(thieno[3,2-c]pyridin-4-yloxy)phenyl)-4a,5,8,8a-tetrahydrophthalazin-1(2H)-one]",No inhibition
2,"COc1ccc(C2=NN(C(C)C)C(=O)[C@H]3CC=CC[C@@H]23)cc1Oc1ncnc2sccc12 (relative stereo) [2k, cis-2-Isopropyl-4-(4-methoxy-3-(thieno[2,3-d]pyrimidin-4-yloxy)phenyl)-4a,5,8,8a-tetrahydrophthalazin-1(2H)-one]",No inhibition
3,"COc1ccc(C2=NN(C(C)C)C(=O)[C@H]3CC=CC[C@@H]23)cc1Oc1nccn2cnnc12 (relative stereo) [2l, cis-4-(3-([1,2,4]Triazolo[4,3-a]pyrazin-8-yloxy)-4-methoxyphenyl)-2-isopropyl-4a,5,8,8a-tetrahydrophthalazin-1(2H)-one]",No inhibition
4,"COc1ccc(C2=NN(C(C)C)C(=O)[C@H]3CC=CC[C@@H]23)cc1Oc1nc2ccccc2s1 (relative stereo) [2p, cis-4-(3-(Benzo[d]thiazol-2-yloxy)-4-methoxyphenyl)-2-isopropyl-4a,5,8,8a-tetrahydrophthalazin-1(2H)-one]",No inhibition

# Next, values leading:
row,TbrPDEB1 (% inh.),Compound
1,No inhibition,"COC(=O)c1cccnc1Oc1cc(C2=NN(C(C)C)C(=O)[C@@H]3CC=CC[C@H]23)ccc1OC (relative stereo) [3a, Methyl 2-(5-(cis-3-isopropyl-4-oxo-3,4,4a,5,8,8a-hexahydrophthalazin-1-yl)-2-methoxyphenoxy)nicotinate]"
2,No inhibition,"COc1ccc(C2=NN(C(C)C)C(=O)[C@@H]3CC=CC[C@H]23)cc1Oc1cc(C#N)ccn1 (relative stereo) [3b, 2-(5-(cis-3-Isopropyl-4-oxo-3,4,4a,5,8,8a-hexahydrophthalazin-1-yl)-2-methoxyphenoxy)isonicotinonitrile]"
3,No inhibition,"COc1ccc(C2=NN(C(C)C)C(=O)[C@@H]3CC=CC[C@H]23)cc1Oc1ncccc1C(=O)O (relative stereo) [3e, 2-(5-(cis-3-Isopropyl-4-oxo-3,4,4a,5,8,8a-hexahydrophthalazin-1-yl)-2-methoxyphenoxy)nicotinic acid]"
4,No inhibition,"COc1ccc(C2=NN(C(C)C)C(=O)[C@@H]3CC=CC[C@H]23)cc1Oc1cc(C(=O)O)ccn1 (relative stereo) [3f, 2-(5-(cis-3-Isopropyl-4-oxo-3,4,4a,5,8,8a-hexahydrophthalazin-1-yl)-2-methoxyphenoxy)isonicotinic acid]"
5,No inhibition,"COc1ccc(C2=NN(C(C)C)C(=O)[C@@H]3CC=CC[C@H]23)cc1Oc1cccc(C(=O)O)n1 (relative stereo) [3h, 6-(5-(cis-3-Isopropyl-4-oxo-3,4,4a,5,8,8a-hexahydrophthalazin-1-yl)-2-methoxyphenoxy)picolinic acid]"
6,No inhibition,"COc1ccc(C2=NN(C(C)C)C(=O)[C@@H]3CC=CC[C@H]23)cc1Oc1ncccc1C(N)=O (relative stereo) [3i, 2-(5-(cis-3-Isopropyl-4-oxo-3,4,4a,5,8,8a-hexahydrophthalazin-1-yl)-2-methoxyphenoxy)nicotinamide]"
7,No inhibition,"COc1ccc(C2=NN(C(C)C)C(=O)[C@@H]3CC=CC[C@H]23)cc1Oc1cc(C(N)=O)ccn1 (relative stereo) [3j, 2-(5-(cis-3-Isopropyl-4-oxo-3,4,4a,5,8,8a-hexahydrophthalazin-1-yl)-2-methoxyphenoxy)isonicotinamide]"
8,No inhibition,"COc1ccc(C2=NN(C(C)C)C(=O)[C@@H]3CC=CC[C@H]23)cc1Oc1ccc(C(N)=O)cn1 (relative stereo) [3k, 6-(5-(cis-3-Isopropyl-4-oxo-3,4,4a,5,8,8a-hexahydrophthalazin-1-yl)-2-methoxyphenoxy)nicotinamide]"
9,No inhibition,"CCCCNC(=O)c1cccnc1Oc1cc(C2=NN(C(C)C)C(=O)[C@@H]3CC=CC[C@H]23)ccc1OC (relative stereo) [3p, N-Butyl-2-(5-(cis-3-isopropyl-4-oxo-3,4,4a,5,8,8a-hexahydrophthalazin-1-yl)-2-methoxyphenoxy)nicotinamide]"
10,No inhibition,"CCCCNC(=O)c1ccnc(Oc2cc(C3=NN(C(C)C)C(=O)[C@@H]4CC=CC[C@H]34)ccc2OC)c1 (relative stereo) [3q, N-Butyl-2-(5-(cis-3-isopropyl-4-oxo-3,4,4a,5,8,8a-hexahydrophthalazin-1-yl)-2-methoxyphenoxy)isonicotinamide]"
11,No inhibition,"CCCCNC(=O)c1ccc(Oc2cc(C3=NN(C(C)C)C(=O)[C@@H]4CC=CC[C@H]34)ccc2OC)nc1 (relative stereo) [3r, N-Butyl-6-(5-(cis-3-isopropyl-4-oxo-3,4,4a,5,8,8a-hexahydrophthalazin-1-yl)-2-methoxyphenoxy)nicotinamide]"
12,No inhibition,"COc1ccc(C2=NN(C(C)C)C(=O)[C@@H]3CC=CC[C@H]23)cc1Oc1ncccc1C(=O)NCc1ccco1 (relative stereo) [3t, N-(Furan-2-ylmethyl)-2-(5-(cis-3-isopropyl-4-oxo-3,4,4a,5,8,8a-hexahydrophthalazin-1-yl)-2-methoxyphenoxy)nicotinamide]"

# Same assay, conditions: single point assay at 10 μM inhibitor; read-out: TbrPDEB1 (% inh.)
row,Compound,inhibition at 10 µM [%]
1,"COc1ccc(C2=NN(C(C)C)C(=O)[C@H]3CC=CC[C@@H]23)cc1Oc1nccs1 (relative stereo) [2a, cis-2-Isopropyl-4-(4-methoxy-3-(thiazol-2-yloxy)phenyl)-4a,5,8,8a-tetrahydrophthalazin-1(2H)-one]",12 ± 3
2,"CCOC(=O)c1cnc(Oc2cc(C3=NN(C(C)C)C(=O)[C@@H]4CC=CC[C@H]34)ccc2OC)s1 (relative stereo) [2b, Ethyl 2-(5-(cis-3-isopropyl-4-oxo-3,4,4a,5,8,8a-hexahydrophthalazin-1-yl)-2-methoxyphenoxy)thiazole-5-carboxylate]",11
3,"COc1ccc(C2=NN(C(C)C)C(=O)[C@H]3CC=CC[C@@H]23)cc1Oc1ncc(CN2CCOCC2)s1 (relative stereo) [2c, cis-2-Isopropyl-4-(4-methoxy-3-((5-(morpholinomethyl)thiazol-2-yl)oxy)phenyl)-4a,5,8,8a-tetrahydrophthalazin-1(2H)-one]",40 ± 4
4,"COc1ccc(C2=NN(C(C)C)C(=O)[C@@H]3CC=CC[C@H]23)cc1Oc1cnc(C(N)=O)cn1 (relative stereo) [2e, 5-(5-(cis-3-Isopropyl-4-oxo-3,4,4a,5,8,8a-hexahydrophthalazin-1-yl)-2-methoxyphenoxy)pyrazine-2-carboxamide]",18 ± 9
5,"COc1ccc(C2=NN(C(C)C)C(=O)[C@H]3CC=CC[C@@H]23)cc1Oc1cc(N2CCOCC2)ncn1 (relative stereo) [2f, cis-2-Isopropyl-4-(4-methoxy-3-((6-morpholinopyrimidin-4-yl)oxy)phenyl)-4a,5,8,8a-tetrahydrophthalazin-1(2H)-one]",11 ± 8

# Next, values leading:
row,inhibition at 10 µM [%],Compound
1,36 ± 6,"COc1ccc(C2=NN(C(C)C)C(=O)[C@@H]3CC=CC[C@H]23)cc1Oc1cccc(C#N)n1 (relative stereo) [3d, 6-(5-(cis-3-Isopropyl-4-oxo-3,4,4a,5,8,8a-hexahydrophthalazin-1-yl)-2-methoxyphenoxy)picolinonitrile]"
2,11 ± 6,"COc1ccc(C2=NN(C(C)C)C(=O)[C@@H]3CC=CC[C@H]23)cc1Oc1ccc(C(=O)O)cn1 (relative stereo) [3g, 6-(5-(cis-3-Isopropyl-4-oxo-3,4,4a,5,8,8a-hexahydrophthalazin-1-yl)-2-methoxyphenoxy)nicotinic acid]"
3,27,"COc1ccc(C2=NN(C(C)C)C(=O)[C@@H]3CC=CC[C@H]23)cc1Oc1cc(C(=O)NCC(N)=O)ccn1 (relative stereo) [3m, N-(2-Amino-2-oxoethyl)-2-(5-(cis-3-isopropyl-4-oxo-3,4,4a,5,8,8a-hexahydrophthalazin-1-yl)-2-methoxyphenoxy)isonicotinamide]"
4,5 ± 1,"COc1ccc(C2=NN(C(C)C)C(=O)[C@@H]3CC=CC[C@H]23)cc1Oc1ccc(C(=O)NCC(N)=O)cn1 (relative stereo) [3n, N-(2-Amino-2-oxoethyl)-6-(5-(cis-3-isopropyl-4-oxo-3,4,4a,5,8,8a-hexahydrophthalazin-1-yl)-2-methoxyphenoxy)nicotinamide]"
5,40 ± 1,"COc1ccc(C2=NN(C(C)C)C(=O)[C@@H]3CC=CC[C@H]23)cc1Oc1cccc(C(=O)NCC(N)=O)n1 (relative stereo) [3o, N-(2-Amino-2-oxoethyl)-6-(5-(cis-3-isopropyl-4-oxo-3,4,4a,5,8,8a-hexahydrophthalazin-1-yl)-2-methoxyphenoxy)picolinamide]"
